Test results from ChEMBL document CHEMBL4261615, “Design, synthesis, biological evaluation and cellular imaging of imidazo[4,5-b]pyridine derivatives as potent and selective TAM inhibitors” (Bioorg Med Chem, 2018).

Tests used:
[1] = target: T1, Tyrosine-protein kinase receptor TYRO3 (Homo sapiens, UniProt Q06418); test: Inhibition of recombinant GST-tagged human Tyro3 (451 to 890 residues) cytoplasmic domain expressed in Baculovirus expression system using poly (Glu-Ala-Tyr) peptide as substrate after 5 mins in presence of ADP by fluorescence analysis
T1 sequence (Q06418 whole entry): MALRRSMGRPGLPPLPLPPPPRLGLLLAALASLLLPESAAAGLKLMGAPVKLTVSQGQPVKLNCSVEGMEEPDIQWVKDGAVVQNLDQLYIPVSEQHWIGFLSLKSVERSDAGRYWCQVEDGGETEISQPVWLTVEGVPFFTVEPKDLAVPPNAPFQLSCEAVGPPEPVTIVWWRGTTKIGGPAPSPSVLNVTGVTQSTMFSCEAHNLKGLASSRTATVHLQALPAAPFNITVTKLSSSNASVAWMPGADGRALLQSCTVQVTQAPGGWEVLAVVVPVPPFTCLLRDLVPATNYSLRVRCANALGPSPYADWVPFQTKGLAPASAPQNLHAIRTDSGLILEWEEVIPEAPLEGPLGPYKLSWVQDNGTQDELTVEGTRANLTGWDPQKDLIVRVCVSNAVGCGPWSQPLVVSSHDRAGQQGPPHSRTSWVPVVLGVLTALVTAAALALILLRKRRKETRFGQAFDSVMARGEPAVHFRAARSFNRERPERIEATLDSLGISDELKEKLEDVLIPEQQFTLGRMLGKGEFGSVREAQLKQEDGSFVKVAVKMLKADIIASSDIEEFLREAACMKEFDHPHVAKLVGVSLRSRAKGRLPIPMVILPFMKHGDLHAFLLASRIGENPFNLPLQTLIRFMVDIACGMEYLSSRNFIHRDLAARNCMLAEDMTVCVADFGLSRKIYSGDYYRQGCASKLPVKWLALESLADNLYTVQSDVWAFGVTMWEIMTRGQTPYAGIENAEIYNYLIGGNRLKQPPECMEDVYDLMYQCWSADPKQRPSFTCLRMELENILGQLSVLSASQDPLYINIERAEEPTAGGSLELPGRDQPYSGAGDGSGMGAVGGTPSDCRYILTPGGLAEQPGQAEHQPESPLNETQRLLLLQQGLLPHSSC

[2] = target: T2, Tyrosine-protein kinase Mer (Homo sapiens) (UniProt Q12866); test: Binding affinity to wild-type partial length human MER (R557 to L884 residues) expressed in bacterial expression system assessed as fraction of unbound kinase to substrate at 10 uM after 1 hr by KinomeScan assay
T2 sequence (whole entry): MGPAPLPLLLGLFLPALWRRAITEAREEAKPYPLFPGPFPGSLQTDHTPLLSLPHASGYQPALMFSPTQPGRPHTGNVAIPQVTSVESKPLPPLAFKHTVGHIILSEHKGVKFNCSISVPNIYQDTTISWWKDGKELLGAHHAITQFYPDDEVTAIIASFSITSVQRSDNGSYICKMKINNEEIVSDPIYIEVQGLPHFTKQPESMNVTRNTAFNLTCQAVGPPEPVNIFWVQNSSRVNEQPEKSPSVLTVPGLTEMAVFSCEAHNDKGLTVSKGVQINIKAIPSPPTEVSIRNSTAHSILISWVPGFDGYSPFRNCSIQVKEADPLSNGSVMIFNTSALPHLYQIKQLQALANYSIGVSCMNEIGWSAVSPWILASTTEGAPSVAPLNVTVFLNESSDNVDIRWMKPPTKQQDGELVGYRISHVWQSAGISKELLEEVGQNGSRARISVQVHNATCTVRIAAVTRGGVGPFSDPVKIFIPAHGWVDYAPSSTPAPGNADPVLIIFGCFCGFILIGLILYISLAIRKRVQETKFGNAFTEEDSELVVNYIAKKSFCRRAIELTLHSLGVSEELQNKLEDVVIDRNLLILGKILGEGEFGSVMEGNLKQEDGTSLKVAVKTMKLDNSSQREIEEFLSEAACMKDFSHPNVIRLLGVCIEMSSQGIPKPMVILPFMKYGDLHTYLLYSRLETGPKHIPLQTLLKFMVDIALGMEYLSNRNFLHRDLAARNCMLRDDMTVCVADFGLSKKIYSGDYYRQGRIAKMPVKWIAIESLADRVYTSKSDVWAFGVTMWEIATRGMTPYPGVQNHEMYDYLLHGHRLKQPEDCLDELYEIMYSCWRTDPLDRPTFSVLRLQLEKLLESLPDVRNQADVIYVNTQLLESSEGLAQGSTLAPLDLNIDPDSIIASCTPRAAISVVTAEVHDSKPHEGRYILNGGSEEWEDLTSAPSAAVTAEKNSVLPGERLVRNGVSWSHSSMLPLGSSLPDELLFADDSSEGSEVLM

[3] = target: T3, Tyrosine-protein kinase receptor TYRO3 (Homo sapiens) (UniProt Q06418); test: Binding affinity to wild-type human partial length TYRO3 (S497 to T814 residues) expressed in bacterial expression system assessed as fraction of unbound kinase to substrate at 0.1 uM after 1 hr by KinomeScan assay
T3 sequence (whole entry): T1 sequence (Q06418 whole entry)

[4] = target: T3, Tyrosine-protein kinase receptor TYRO3 (Homo sapiens); test: Binding affinity to wild-type human partial length TYRO3 (S497 to T814 residues) expressed in bacterial expression system assessed as fraction of unbound kinase to substrate at 10 uM after 1 hr by KinomeScan assay
[5] = target: Hepatocyte growth factor receptor (Homo sapiens) (UniProt P08581); test: Binding affinity to human MET (D1010 to S1367 residues) expressed in bacterial expression system assessed as fraction of unbound kinase to substrate at 1 uM after 1 hr by KinomeScan assay
[6] = target: Hepatocyte growth factor receptor (Homo sapiens) (UniProt P08581); test: Binding affinity to human MET (D1010 to S1367 residues) expressed in bacterial expression system assessed as fraction of unbound kinase to substrate at 10 uM after 1 hr by KinomeScan assay
[7] = target: Tyrosine-protein kinase ABL1 (Homo sapiens) (UniProt P00519); test: Binding affinity to human wild type ABL1 (229 to 512 residues) expressed in mammalian expression system assessed as fraction of unbound kinase to substrate at 1 uM after 1 hr by KinomeScan assay
[8] = target: Serine/threonine-protein kinase B-raf (Homo sapiens) (UniProt P15056); test: Binding affinity to wild-type human partial length BRAF (S429 to E741 residues) expressed in mammalian expression system assessed as fraction of unbound kinase to substrate at 0.1 uM after 1 hr by KinomeScan assay
[9] = target: T4, Tyrosine-protein kinase Mer (Homo sapiens, UniProt Q12866); test: Inhibition of recombinant GST-tagged human Mer (578 to 872 residues) cytoplasmic domain expressed in Baculovirus system using poly (Glu-Ala-Tyr) peptide as substrate after 5 mins in presence of ADP by fluorescence analysis
T4 sequence (Q12866 whole entry): T2 sequence (whole entry)

[10] = target: Glycogen synthase kinase-3 beta (Homo sapiens) (UniProt P49841); test: Binding affinity to full length wild type human GSK3beta (M1 to T433 residues) expressed in mammalian expression system assessed as fraction of unbound kinase to substrate at 1 uM after 1 hr by KinomeScan assay
[11] = target: Tyrosine-protein kinase ABL1 (Homo sapiens) (UniProt P00519); test: Binding affinity to human wild type ABL1 (229 to 512 residues) expressed in mammalian expression system assessed as fraction of unbound kinase to substrate at 10 uM after 1 hr by KinomeScan assay

Chain of Serine/threonine-protein kinase B-raf (Homo sapiens) (P15056 whole entry, the tested form may be a part): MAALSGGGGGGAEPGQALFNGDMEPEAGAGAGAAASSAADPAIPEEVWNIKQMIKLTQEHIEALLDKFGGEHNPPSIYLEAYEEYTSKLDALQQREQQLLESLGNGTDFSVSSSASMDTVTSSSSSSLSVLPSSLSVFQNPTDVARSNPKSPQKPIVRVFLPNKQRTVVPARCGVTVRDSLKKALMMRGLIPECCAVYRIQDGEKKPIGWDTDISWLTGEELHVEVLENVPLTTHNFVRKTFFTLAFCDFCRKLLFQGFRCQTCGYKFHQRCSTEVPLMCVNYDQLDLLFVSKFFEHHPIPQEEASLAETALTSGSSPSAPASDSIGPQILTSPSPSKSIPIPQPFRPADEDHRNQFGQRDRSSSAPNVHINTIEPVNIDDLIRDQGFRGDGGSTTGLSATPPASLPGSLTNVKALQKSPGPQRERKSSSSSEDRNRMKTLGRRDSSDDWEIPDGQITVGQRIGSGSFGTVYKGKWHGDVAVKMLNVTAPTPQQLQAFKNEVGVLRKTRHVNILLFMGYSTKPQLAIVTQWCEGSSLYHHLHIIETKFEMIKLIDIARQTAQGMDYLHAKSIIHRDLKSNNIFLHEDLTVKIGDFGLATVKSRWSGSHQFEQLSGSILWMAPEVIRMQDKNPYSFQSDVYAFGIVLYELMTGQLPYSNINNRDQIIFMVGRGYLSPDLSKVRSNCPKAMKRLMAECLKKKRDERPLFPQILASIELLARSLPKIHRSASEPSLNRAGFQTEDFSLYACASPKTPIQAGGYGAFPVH
Chain of Hepatocyte growth factor receptor (Homo sapiens) (P08581 whole entry, the tested form may be a part): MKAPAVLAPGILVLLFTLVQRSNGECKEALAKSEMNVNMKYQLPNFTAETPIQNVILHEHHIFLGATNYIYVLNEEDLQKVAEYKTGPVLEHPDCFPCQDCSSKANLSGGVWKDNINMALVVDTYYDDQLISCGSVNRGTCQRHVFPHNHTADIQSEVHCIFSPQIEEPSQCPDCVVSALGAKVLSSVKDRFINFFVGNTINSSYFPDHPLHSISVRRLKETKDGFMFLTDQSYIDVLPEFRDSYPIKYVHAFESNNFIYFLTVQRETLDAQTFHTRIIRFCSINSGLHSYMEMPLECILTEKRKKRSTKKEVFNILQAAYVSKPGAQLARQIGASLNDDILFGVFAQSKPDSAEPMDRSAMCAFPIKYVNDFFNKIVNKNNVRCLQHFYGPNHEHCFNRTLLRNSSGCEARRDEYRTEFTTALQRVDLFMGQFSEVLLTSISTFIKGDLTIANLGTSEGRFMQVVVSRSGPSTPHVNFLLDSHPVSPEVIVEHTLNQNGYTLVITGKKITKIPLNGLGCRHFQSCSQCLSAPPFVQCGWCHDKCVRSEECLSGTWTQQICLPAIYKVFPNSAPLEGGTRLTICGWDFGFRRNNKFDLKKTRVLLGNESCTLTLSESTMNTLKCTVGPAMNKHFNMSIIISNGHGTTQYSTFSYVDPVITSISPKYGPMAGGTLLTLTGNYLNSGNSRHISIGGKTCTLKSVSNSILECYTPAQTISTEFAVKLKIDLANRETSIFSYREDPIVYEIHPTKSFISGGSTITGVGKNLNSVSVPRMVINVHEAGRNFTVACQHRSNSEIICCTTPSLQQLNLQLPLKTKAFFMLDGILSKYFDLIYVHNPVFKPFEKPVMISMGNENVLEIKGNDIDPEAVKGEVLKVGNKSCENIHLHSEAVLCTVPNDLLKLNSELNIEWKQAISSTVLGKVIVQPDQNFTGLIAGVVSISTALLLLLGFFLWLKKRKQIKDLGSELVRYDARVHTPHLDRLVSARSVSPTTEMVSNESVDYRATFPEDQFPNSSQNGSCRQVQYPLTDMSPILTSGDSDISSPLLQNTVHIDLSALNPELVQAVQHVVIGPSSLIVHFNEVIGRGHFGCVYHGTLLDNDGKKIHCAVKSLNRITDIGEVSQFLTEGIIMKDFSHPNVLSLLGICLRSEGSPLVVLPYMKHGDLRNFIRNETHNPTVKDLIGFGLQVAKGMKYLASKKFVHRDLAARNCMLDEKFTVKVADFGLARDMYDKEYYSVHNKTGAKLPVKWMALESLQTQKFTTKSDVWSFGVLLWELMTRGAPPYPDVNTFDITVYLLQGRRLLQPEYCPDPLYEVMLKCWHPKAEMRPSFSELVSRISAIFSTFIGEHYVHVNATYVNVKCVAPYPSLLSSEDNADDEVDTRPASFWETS
Chain of Glycogen synthase kinase-3 beta (Homo sapiens) (P49841 whole entry, looked up, the tested form may be a part): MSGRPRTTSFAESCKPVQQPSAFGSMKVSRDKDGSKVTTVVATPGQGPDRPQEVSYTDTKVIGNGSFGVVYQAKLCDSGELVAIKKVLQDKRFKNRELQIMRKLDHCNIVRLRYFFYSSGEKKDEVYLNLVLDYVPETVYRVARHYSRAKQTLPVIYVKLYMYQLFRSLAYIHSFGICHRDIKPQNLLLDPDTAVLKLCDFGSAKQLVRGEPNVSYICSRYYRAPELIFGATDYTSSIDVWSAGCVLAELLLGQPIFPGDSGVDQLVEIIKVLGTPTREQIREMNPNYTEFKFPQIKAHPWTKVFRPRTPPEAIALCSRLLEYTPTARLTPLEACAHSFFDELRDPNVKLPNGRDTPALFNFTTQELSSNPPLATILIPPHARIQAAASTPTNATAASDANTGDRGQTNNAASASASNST
Chain of Tyrosine-protein kinase ABL1 (Homo sapiens) (P00519 whole entry, the tested form may be a part): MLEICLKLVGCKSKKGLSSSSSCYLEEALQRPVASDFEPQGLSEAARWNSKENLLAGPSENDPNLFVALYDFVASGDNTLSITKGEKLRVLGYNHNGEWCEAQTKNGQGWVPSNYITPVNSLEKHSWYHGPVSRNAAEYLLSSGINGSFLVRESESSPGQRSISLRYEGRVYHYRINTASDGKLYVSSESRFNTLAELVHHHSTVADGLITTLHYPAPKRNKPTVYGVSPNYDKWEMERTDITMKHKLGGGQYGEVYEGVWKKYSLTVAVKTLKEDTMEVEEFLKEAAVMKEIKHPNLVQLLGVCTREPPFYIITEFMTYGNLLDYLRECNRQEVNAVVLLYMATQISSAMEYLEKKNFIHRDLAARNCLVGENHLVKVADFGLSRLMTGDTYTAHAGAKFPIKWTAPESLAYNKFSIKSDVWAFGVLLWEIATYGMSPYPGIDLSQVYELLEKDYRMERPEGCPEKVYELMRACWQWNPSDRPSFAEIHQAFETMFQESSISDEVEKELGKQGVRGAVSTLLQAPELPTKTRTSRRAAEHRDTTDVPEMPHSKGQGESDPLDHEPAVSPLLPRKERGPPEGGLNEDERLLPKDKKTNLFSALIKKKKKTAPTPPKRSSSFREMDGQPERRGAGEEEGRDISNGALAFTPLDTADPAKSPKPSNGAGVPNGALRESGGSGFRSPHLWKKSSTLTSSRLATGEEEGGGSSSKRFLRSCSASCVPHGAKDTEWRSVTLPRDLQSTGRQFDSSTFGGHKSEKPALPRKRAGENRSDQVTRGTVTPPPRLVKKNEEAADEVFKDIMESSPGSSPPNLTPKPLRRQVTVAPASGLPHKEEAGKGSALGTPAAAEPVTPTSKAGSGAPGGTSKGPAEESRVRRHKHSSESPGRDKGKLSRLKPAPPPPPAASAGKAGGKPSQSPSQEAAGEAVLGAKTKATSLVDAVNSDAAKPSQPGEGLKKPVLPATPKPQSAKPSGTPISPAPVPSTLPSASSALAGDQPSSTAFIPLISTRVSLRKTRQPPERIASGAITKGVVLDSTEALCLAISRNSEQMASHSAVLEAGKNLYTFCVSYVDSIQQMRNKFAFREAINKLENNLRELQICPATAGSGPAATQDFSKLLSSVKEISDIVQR

| IC50 [1] [nM] | Activity [2] [%] | Activity [3] [%] | Activity [4] [%] | Activity [5] [%] | Activity [6] [%] | Activity [7] [%] | Activity [8] [%] | IC50 [9] [nM] | Activity [10] [%] | Activity [11] [%] | Compound |
| --- | --- | --- | --- | --- | --- | --- | --- | --- | --- | --- | --- |
| 270 | 98.2 | 15 | 10 | 82 | 96.4 | 0 | 0 | 9 | 1 | 0 | O=C(Nc1ccc(Oc2c(Br)cnc3[nH]cnc23)c(F)c1)c1cccn(-c2ccc(F)cc2)c1=O |
| 4700 | 99.1 | 1 | 92.4 | 96.7 | 96.6 | 3 | 0 | 40 | 0 | 17 | CC(C)c1nc2c(Oc3ccc(NC(=O)c4cccn(-c5ccc(F)cc5)c4=O)cc3F)ccnc2[nH]1 |
| > 100000 | 99.1 | 0 | 5 | 94.5 | 96.2 | 1 | 0 | > 100000 | 5 | 3 | Cc1cnc2[nH]cnc2c1Oc1ccc(NC(=O)c2cccn(-c3ccc(F)cc3)c2=O)cc1F |
| 690 | 99.6 | 17 | 99.8 | 96 | 97 | 13 | 9 | 90 | 5 | 34 | O=C(Nc1ccc(Oc2ccnc3[nH]cnc23)c(F)c1)c1cccn(-c2ccc(F)cc2)c1=O |
